Laboratory results reported in ChEMBL document CHEMBL4376820, “Homodimeric Tobramycin Adjuvant Repurposes Novobiocin as an Effective Antibacterial Agent against Gram-Negative Bacteria” (J Med Chem, 2019).
Activity calls are given as the source filed them. No cut-off for these calls is given here.

Columns and labels:
Pseudomonas aeruginosa [1] = assay: Synergistic antibacterial activity against wild type Pseudomonas aeruginosa PAO1 assessed as potentiation of rifampicin-induced antibacterial effect incubated for 18 hrs by checkerboard assay; assay type: functional, organism-based
Pseudomonas aeruginosa [2] = assay: Synergistic antibacterial activity against wild type Pseudomonas aeruginosa PAO1 assessed as potentiation of aztreonam-induced antibacterial effect incubated for 18 hrs by checkerboard assay; assay type: functional, organism-based
Pseudomonas aeruginosa [3] = assay: Synergistic antibacterial activity against wild type Pseudomonas aeruginosa PAO1 assessed as potentiation of fosfomycin-induced antibacterial effect incubated for 18 hrs by checkerboard assay; assay type: functional, organism-based
Pseudomonas aeruginosa [4] = assay: Synergistic antibacterial activity against wild type Pseudomonas aeruginosa PAO1 assessed as potentiation of piperacillin-induced antibacterial effect incubated for 18 hrs by checkerboard assay; assay type: functional, organism-based
Pseudomonas aeruginosa [5] = assay: Synergistic antibacterial activity against wild type Pseudomonas aeruginosa PAO1 assessed as potentiation of tobramycin-induced antibacterial effect at <= 7.1 uM incubated for 18 hrs by checkerboard assay; assay type: functional, organism-based
Pseudomonas aeruginosa [6] = assay: Synergistic antibacterial activity against wild type Pseudomonas aeruginosa PAO1 assessed as potentiation of rifampicin-induced antibacterial effect incubated for 18 hrs by checkerboard assay relative to rifampicin alone; assay type: functional
Pseudomonas aeruginosa [7] = assay: Synergistic antibacterial activity against wild type Pseudomonas aeruginosa PAO1 assessed as potentiation of minocycline-induced antibacterial effect incubated for 18 hrs by checkerboard assay relative to minocycline alone; assay type: functional
Pseudomonas aeruginosa [8] = assay: Synergistic antibacterial activity against wild type Pseudomonas aeruginosa PAO1 assessed as potentiation of meropenem-induced antibacterial effect incubated for 18 hrs by checkerboard assay relative to meropenem alone; assay type: functional
Pseudomonas aeruginosa [9] = assay: Synergistic antibacterial activity against wild type Pseudomonas aeruginosa PAO1 assessed as potentiation of moxifloxacin-induced antibacterial effect incubated for 18 hrs by checkerboard assay relative to moxifloxacin alone; assay type: functional
Pseudomonas aeruginosa [10] = assay: Synergistic antibacterial activity against wild type Pseudomonas aeruginosa PAO1 assessed as potentiation of clindamycin-induced antibacterial effect incubated for 18 hrs by checkerboard assay relative to clindamycin alone; assay type: functional
Pseudomonas aeruginosa [11] = assay: Potentiation of novobiocin-induced antibacterial activity against wild type Pseudomonas aeruginosa PAO1 assessed as novobiocin MIC at <= 7.1 uM incubated for 18 hrs by CLSI protocol based assay (reference value: 512 ug/ml); assay type: functional; conditions: PAO1, 18 h
Pseudomonas aeruginosa [12] = assay: Potentiation of novobiocin-induced antibacterial activity against carbapenem-resistant Pseudomonas aeruginosa 264-104354 clinical isolate assessed as novobiocin MIC at <= 7.1 uM incubated for 18 hrs by CLSI protocol based assay (reference value: 512 ug/ml); assay type: functional; conditions: 264-104354, 18 h
Pseudomonas aeruginosa [13] = assay: Potentiation of novobiocin-induced antibacterial activity against colistin and carbapenem-resistant Pseudomonas aeruginosa 101243 clinical isolate assessed as novobiocin MIC at <= 7.1 uM incubated for 18 hrs by CLSI protocol based assay (reference value: 128 ug/ml); assay type: functional; conditions: Pseudomonas aeruginosa, 101243, 18 h
Pseudomonas aeruginosa [14] = assay: Potentiation of novobiocin-induced antibacterial activity against carbapenem-resistant Pseudomonas aeruginosa 101885 clinical isolate assessed as novobiocin MIC at <= 7.1 uM incubated for 18 hrs by CLSI protocol based assay (reference value: 1024 ug/ml); assay type: functional; conditions: Pseudomonas aeruginosa, 101885, 18 h
Acinetobacter baumannii [15] = assay: Potentiation of novobiocin-induced antibacterial activity against wild type Acinetobacter baumannii ATCC 17978 assessed as novobiocin MIC at <= 7.1 uM incubated for 18 hrs by CLSI protocol based assay (reference value: 16 ug/ml); assay type: functional; conditions: ATCC 17978, 18 h
Acinetobacter baumannii [16] = assay: Potentiation of novobiocin-induced antibacterial activity against colistin-resistant Acinetobacter baumannii 92247 clinical isolate assessed as novobiocin MIC at <= 7.1 uM incubated for 18 hrs by CLSI protocol based assay (reference value: 4 ug/ml); assay type: functional; conditions: Acinetobacter baumannii, 92247, 18 h
Enterobacter cloacae [17] = assay: Potentiation of novobiocin-induced antibacterial activity against colistin-resistant Enterobacter cloacae 121187 clinical solate assessed as novobiocin MIC at <= 7.1 uM incubated for 18 hrs by CLSI protocol based assay (reference value: 64 ug/ml); assay type: functional; conditions: Enterobacter cloacae, 121187, 18 h
Pseudomonas aeruginosa [18] = assay: Antibacterial activity against carbapenem-resistant Pseudomonas aeruginosa 262-101856 clinical isolate incubated for 18 hrs by CLSI protocol based assay; assay type: functional; conditions: 262-101856, 18 h
Pseudomonas aeruginosa [19] = assay: Antibacterial activity against carbapenem-resistant Pseudomonas aeruginosa 264-104354 clinical isolate incubated for 18 hrs by CLSI protocol based assay; assay type: functional; conditions: 264-104354, 18 h
Pseudomonas aeruginosa [20] = assay: Antibacterial activity against carbapenem-resistant Pseudomonas aeruginosa 100036 clinical isolate incubated for 18 hrs by CLSI protocol based assay; assay type: functional; conditions: Pseudomonas aeruginosa, 100036, 18 h
Acinetobacter baumannii [21] = assay: Antibacterial activity against Acinetobacter baumannii 110193 clinical isolate incubated for 18 hrs by CLSI protocol based assay; assay type: functional; conditions: Acinetobacter baumannii, 110193, 18 h
Escherichia coli [22] = assay: Antibacterial activity against wild type Escherichia coli ATCC 25922 incubated for 18 hrs by CLSI protocol based assay; assay type: functional; conditions: ATCC 25922, 18 h
Enterobacter cloacae [23] = assay: Antibacterial activity against colistin-resistant Enterobacter cloacae 118568 clinical solate incubated for 18 hrs by CLSI protocol based assay; assay type: functional; conditions: Enterobacter cloacae, 118568, 18 h
Pseudomonas aeruginosa [24] = assay: Potentiation of novobiocin-induced antibacterial activity against carbapenem and colistin-resistant Pseudomonas aeruginosa 91433 clinical isolate assessed as fold reduction in novobiocin MIC incubated for 18 hrs by CLSI protocol based assay relative to novobiocin MIC; assay type: functional
Acinetobacter baumannii [25] = assay: Potentiation of novobiocin-induced antibacterial activity against Acinetobacter baumannii LAC-4 clinical isolate assessed as fold reduction in novobiocin MIC incubated for 18 hrs by CLSI protocol based assay relative to novobiocin MIC; assay type: functional
Escherichia coli [26] = assay: Potentiation of novobiocin-induced antibacterial activity against wild type Escherichia coli ATCC 25922 assessed as fold reduction in novobiocin MIC incubated for 18 hrs by CLSI protocol based assay relative to novobiocin MIC; assay type: functional
Escherichia coli [27] = assay: Potentiation of novobiocin-induced antibacterial activity against colistin-resistant Escherichia coli 94393 clinical isolate harboring mcr-1 gene assessed as fold reduction in novobiocin MIC incubated for 18 hrs by CLSI protocol based assay relative to novobiocin MIC; assay type: functional
Escherichia coli [28] = assay: Potentiation of novobiocin-induced antibacterial activity against colistin-resistant Escherichia coli 94474 clinical isolate harboring mcr-1 gene assessed as fold reduction in novobiocin MIC incubated for 18 hrs by CLSI protocol based assay relative to novobiocin MIC; assay type: functional
Klebsiella pneumoniae [29] = assay: Potentiation of novobiocin-induced antibacterial activity against colistin-resistant Klebsiella pneumoniae 113250 clinical isolate assessed as fold reduction in novobiocin MIC incubated for 18 hrs by CLSI protocol based assay relative to novobiocin MIC; assay type: functional
Klebsiella pneumoniae [30] = assay: Potentiation of novobiocin-induced antibacterial activity against Klebsiella pneumoniae 116381 clinical isolate assessed as fold reduction in novobiocin MIC incubated for 18 hrs by CLSI protocol based assay relative to novobiocin MIC; assay type: functional
Pseudomonas aeruginosa [31] = assay: Antibacterial activity against mexAB-oprM mutant deficient Pseudomonas aeruginosa PAO200 incubated for 18 hrs by CLSI protocol based assay; assay type: functional; conditions: PAO200, 18 h
Klebsiella pneumoniae [32] = assay: Bactericidal activity against Klebsiella pneumoniae 116381 assessed as log reduction in colony forming units per ml at 7.1 in LB media after 24 hrs in presence of 50.4 uM novobiocin by time-kill assay; assay type: functional, organism-based
Escherichia coli [33] = assay: Bactericidal activity against Escherichia coli ATCC […] assessed as log reduction in colony forming units per ml at 7.1 uM in LB media after 9 hrs by time-kill assay; assay type: functional

SMILES: NC[C@H]1O[C@H](O[C@H]2[C@H](OCCCCc3cn(CCCCO[C@@H]4[C@@H](O[C@H]5O[C@H](CO)[C@@H](O)[C@H](N)[C@H]5O)[C@H](N)C[C@H](N)[C@H]4O[C@H]4O[C@H](CN)[C@@H](O)C[C@H]4N)nn3)[C@@H](O[C@H]3O[C@H](CO)[C@@H](O)[C@H](N)[C@H]3O)[C@H](N)C[C@@H]2N)[C@H](N)C[C@@H]1O.O=C(O)C(F)(F)F.O=C(O)C(F)(F)F.O=C(O)C(F)(F)F.O=C(O)C(F)(F)F.O=C(O)C(F)(F)F.O=C(O)C(F)(F)F.O=C(O)C(F)(F)F.O=C(O)C(F)(F)F.O=C(O)C(F)(F)F.O=C(O)C(F)(F)F
- Activity (Pseudomonas aeruginosa [1]): Dose-dependent effect
- Activity (Pseudomonas aeruginosa [2]): Dose-dependent effect
- Activity (Pseudomonas aeruginosa [3]): Dose-dependent effect
- Activity (Pseudomonas aeruginosa [4]): Dose-dependent effect
- Activity (Pseudomonas aeruginosa [5]): inactive
- fold change (FC) (Pseudomonas aeruginosa [6]): 4 - 128
- fold change (FC) (Pseudomonas aeruginosa [7]): 4 - 128
- fold change (FC) (Pseudomonas aeruginosa [8]): 4 - 128
- fold change (FC) (Pseudomonas aeruginosa [9]): 4 - 128
- fold change (FC) (Pseudomonas aeruginosa [10]): 4 - 128
- MIC (Pseudomonas aeruginosa [11]): 4 µg/mL
- MIC (Pseudomonas aeruginosa [12]): 8 µg/mL
- MIC (Pseudomonas aeruginosa [13]): 1 µg/mL
- MIC (Pseudomonas aeruginosa [14]): 8 µg/mL
- MIC (Acinetobacter baumannii [15]): 0.5 µg/mL
- MIC (Acinetobacter baumannii [16]): 0.25 µg/mL
- MIC (Enterobacter cloacae [17]): 8 µg/mL
- MIC (Pseudomonas aeruginosa [18]): > 128 µg/mL
- MIC (Pseudomonas aeruginosa [19]): > 128 µg/mL
- MIC (Pseudomonas aeruginosa [20]): > 128 µg/mL
- MIC (Acinetobacter baumannii [21]): > 128 µg/mL
- MIC (Escherichia coli [22]): > 128 µg/mL
- MIC (Enterobacter cloacae [23]): > 128 µg/mL
- Ratio (Pseudomonas aeruginosa [24]): 16
- Ratio (Acinetobacter baumannii [25]): 16
- Ratio (Escherichia coli [26]): 32
- Ratio (Escherichia coli [27]): 64
- Ratio (Escherichia coli [28]): 16
- Ratio (Klebsiella pneumoniae [29]): 32
- Ratio (Klebsiella pneumoniae [30]): 128
- MIC (Pseudomonas aeruginosa [31]): > 128 µg/mL
- Activity (Klebsiella pneumoniae [32]): Active
- Activity (Escherichia coli [33]): -2 CFU/ml
